Values of other authors, collected in article PMC4141160, “Peptide Inhibitor of Complement C1, a Novel Suppressor of Classical Pathway Activation: Mechanistic Studies and Clinical Potential” (Frontiers in Immunology, 2014).

Legend:
[1] = tested on: C1
[2] = tested on: classical pathway
[3] = tested on: C1q; design: method as in PMID 20728940
[4] = tested on: alternative pathway
[5] = tested on: transfused human RBCs; design: method as in PMID 12576307; conditions: mouse
[6] = tested on: CLR of C1q; conditions: ELISA
[7] = target: purified C1q; design: method as in PMID 22906481; conditions: surface plasmon resonance, read-out: mean equilibrium dissociation constant (KD)
[8] = tested on: C4a; conditions: single i.v. injection at 30 mg/kg; ELISA

Molecule: PAICQRATATLGTVGSNTSGTTEIEACILL [CPP1, 30-residue PIC1 derivative from the HNP-1 homology region of astrovirus CP]
- inhibition of C1 activation, as assayed by C1s cleavage [1]: inhibited C1 activation
- Classical pathway inhibition values using 0.77 mM peptide [2]: 50%
- inhibition of the binding of CP to C1q [3]: inhibited the binding of CP to C1q

Molecule: PAICQRAEIEACILL [Δ8–22, CPP1 with central region removed, functional peptide of 15 residues]
- Classical pathway inhibition values using 0.77 mM peptide [2]: 70%
- effect on the alternative pathway [4]: minimal effect

Molecule: sCR1: soluble complement receptor 1
- hemolysis and C3 and C4 deposition on transfused human RBCs [5]: temporarily inhibit hemolysis as well as C3 and C4 deposition

Molecule: IALILEPICCQERAA [PA, rearranged PIC1 Δ8–22 derivative, 15 residues]
- binding to the CLR of C1q [6]: specifically bind to the CLR of C1q
- Kd [7]: 33.3 nM
- Classical pathway inhibition values using 0.77 mM peptide [2]: 85%

B1: TNT009: humanized monoclonal analog of TNT003 (antibody, chains of the INN, looked up, V domains shown)
VH: EVQLVESGGGLVKPGGSLRLSCAASGFTFSNYAMSWVRQAPGKGLEWVATISSGGSHTYYLDSVKGRFTISRDNSKNTLYLQMNSLRAEDTALYYCARLFTGYAMDYWGQGTLVTVSS
VL: QIVLTQSPATLSLSPGERATMSCTASSSVSSSYLHWYQQKPGKAPKLWIYSTSNLASGVPSRFSGSGSGTDYTLTISSLQPEDFATYYCHQYYRLPPITFGQGTKLEIK
- in vivo generation of C4a [8]: inhibited the in vivo generation of C4a
